Measurements from PMC10216478, “Development of a Non-Peptide Angiotensin II Type 1 Receptor Ligand by Structural Modification of Olmesartan as a Biased Agonist” (Biomedicines, 2023).

Molecular target: T1, AT1 wild-type receptor (Rattus norvegicus, UniProt P25095)
T1 construct: expressed in transfected cells; host or cells: COS7
T1 sequence (P25095 1-359): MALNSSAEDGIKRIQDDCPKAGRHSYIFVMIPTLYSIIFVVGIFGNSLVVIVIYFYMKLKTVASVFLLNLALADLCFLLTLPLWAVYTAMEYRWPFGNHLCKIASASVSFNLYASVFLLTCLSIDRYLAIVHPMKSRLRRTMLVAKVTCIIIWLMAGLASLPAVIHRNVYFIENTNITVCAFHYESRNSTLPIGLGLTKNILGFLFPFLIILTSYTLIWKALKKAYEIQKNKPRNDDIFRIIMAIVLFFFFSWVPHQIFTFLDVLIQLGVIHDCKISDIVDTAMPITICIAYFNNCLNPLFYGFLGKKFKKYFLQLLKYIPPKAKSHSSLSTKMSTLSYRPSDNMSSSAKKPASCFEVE
Assay: IP production assay in COS7 cells expressing AT1 wild-type receptor
Format: cell-based
Settings: for Effect on IP production: AT1 wild-type receptor, COS7 cells, 1 µM ligands or 0.1 µM Ang II, 30 min, n = 5, vs. (-); for Mode of action with regard to IP production: authors' classification from IP production at AT1 wild-type receptor
Description: The synthetic rat AT1 receptor gene, which was cloned in the shuttle expression vector pMT-2, was used for expression and mutagenesis, as described previously. […] In the experiments, cells were grown without a cell-growth supplement. To express the AT1 receptor protein, 10 µg of purified plasmid DNA per 10^7 cells was used in the transfection. Wild-type and mutated AT1 receptors were transiently transfected into cells using Lipofectamine 2000 liposomal reagent (Roche Applied Science, Penzberg, Germany). Cells were plated and grown and were 70–90% confluent at the time of transfection. We incubated plasmid DNA (10 µg)–lipid (10 µL) complexes for 5 min at room temperature and added and incubated the complexes with cells for 24 h. We then analyzed the parameters in transfected cells. […] Transfected cells that had been cultured for 48–72 h were harvested. Cell membranes were prepared using the nitrogen Parr bomb disruption or freeze–thaw methods.
Ligand (such as agonist or antagonist)-induced IP production through the AT1 receptor in transfected COS7 cells transiently expressing the AT1 receptor was measured to evaluate cell signaling as a second messenger for controlling blood pressure, since the increases in the intracellular Ca^2+ concentration were the result of IP accumulation, which indicated vasoconstriction. As a surrogate model with higher levels of AT1 receptor expression, COS7 cells are suitable for IP measurement because it is easy to detect differences in IP production. Cells were labeled for 24 h with [^3H]-myoinositol at 37 °C in DMEM containing 10% FBS. Next, the cells were washed with buffer 3 times and incubated with a medium containing 10 mM LiCl for 20 min; 0.1 µM Ang II or 1 µM ligands were added and incubation was continued for another 30 min at 37 °C. After incubation, the medium was removed, and total soluble IP was extracted from the cells using the perchloric acid extraction method, as described previously. Cells were plated at a field density of 5 × 10^3 cells/cm^2 in 60 mm dishes and cultured in a fresh growth medium at 37 °C in a DMEM 5% CO2 incubator. […] The culture medium was changed 48 h after transfection and 1.5 mL of 1 μCi/mL of [^3H]-myoinositol was added to each 60-mm dish at 37 °C in DMEM containing 10% FBS. After labeling, the cells were washed with buffer 3 times and incubated with a medium containing 10 mM LiCl for 20 min. The indicated concentration of ligands was added and incubation was continued for an additional 30 min at 37 °C. After incubation, the medium was removed, and total soluble IP was extracted from the cells using the perchloric acid extraction method. Total IP production was expressed as the sum of radioactivity, as described previously.

| Effect on IP production | Mode of action with regard to IP production | SMILES |
| --- | --- | --- |
| significantly decreased | inverse agonist | CCCc1nc(C(C)(C)O)c(C(=O)O)n1Cc1ccc(-c2cc(Cc3ccc(O)cc3)ccc2-c2nnn[nH]2)cc1 [R781253] |
| increased IP production | agonist | CCCc1nc(C(C)(C)O)c(C(N)=O)n1Cc1ccc(-c2cc(Cc3ccc(O)cc3)ccc2-c2nnn[nH]2)cc1 [R794847] |
| did not change IP production | neutral antagonist | CCCc1nc(C(C)(C)O)c(C(N)=O)n1Cc1ccc(-c2ccccc2-c2nnn[nH]2)cc1 [R239470] |

| SMILES | Effect on IP production | Mode of action with regard to IP production |
| --- | --- | --- |
| CCCc1nc(C(C)(C)O)c(C(=O)O)n1Cc1ccc(-c2ccccc2-c2nnn[nH]2)cc1 [Olmesartan, olmesartan] | significant reduction in basal IP production levels | inverse agonism |
